Data on 9 compounds can be found in PubChem BioAssay (NCI).

SMILES strings stand for the structures.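 48-hour exposure; five concentrations; linearly interpolated endpoints. Definition used: TGI = concentration required for complete inhibition of growth.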

Among the test systems are 786-0 renal; A498 renal; CAKI-1 renal; DU-145 prostate; HCT-15 colon; IGROV1 ovarian; MOLT-4 leukemia; NCI/ADR-RES ovarian; PC-3 prostate; RXF 393 renal; SK-MEL-2 melanoma; SN12C renal; SNB-19 CNS; SNB-75 CNS; U251 CNS; UACC-62 melanoma; HOP-92 NSCLC; K-562 leukemia.
What all share (assay): NCI anticancer screen, dose series, 48 h

For `COC(=O)C1CC2CC1C1C2SC(F)(F)C1(F)F` (configuration not stated), the TGI in the experiment with 786-0 renal, in the experiment on A498 renal, in the experiment with CAKI-1 renal, with DU-145 prostate, in the experiment with HCT-15 colon and in the experiment with IGROV1 ovarian was above 100 µM each time. Further, the TGI with MOLT-4 leukemia, in the experiment with NCI/ADR-RES ovarian, in the experiment with PC-3 prostate, in the experiment on RXF 393 renal, with SK-MEL-2 melanoma and in the experiment on SN12C renal was above 100 µM throughout. For the same compound, the TGI in the experiment with SNB-19 CNS, in the experiment on SNB-75 CNS, in the experiment with U251 CNS and with UACC-62 melanoma was above 100 µM each time.

As to `C(=C\c1cc[n+](CCc2ccccc2)cc1)/c1ccccc1`, the TGI was above 100 µM with 786-0 renal; 86.1 µM in the experiment on CAKI-1 renal; above 100 µM with DU-145 prostate; above 100 µM with HCT-15 colon; above 100 µM in the experiment with HOP-92 NSCLC; above 100 µM in the experiment on IGROV1 ovarian. In addition, the TGI was 63.6 µM in the experiment with K-562 leukemia; 69.4 µM with MOLT-4 leukemia; above 100 µM in the experiment on NCI/ADR-RES ovarian; above 100 µM with PC-3 prostate; above 100 µM in the experiment with RXF 393 renal; 55.2 µM in the experiment on SK-MEL-2 melanoma. Moreover, the TGI with SN12C renal is 16.4 µM; with SNB-19 CNS it was 50.9 µM; with SNB-75 CNS, above 100 µM; in the experiment on U251 CNS, 18.9 µM; with UACC-62 melanoma, 22.9 µM.

Turning to `CCN(C(=O)N[C@@H](CC(C)C)C(=O)NCC(=O)OC)c1ccccc1`, the TGI with 786-0 renal, with CAKI-1 renal, in the experiment with DU-145 prostate, in the experiment on HCT-15 colon, in the experiment with HOP-92 NSCLC and in the experiment on IGROV1 ovarian was above 100 µM each time. The TGI in the experiment with K-562 leukemia, in the experiment on MOLT-4 leukemia, in the experiment with NCI/ADR-RES ovarian, in the experiment on PC-3 prostate, in the experiment with RXF 393 renal and with SK-MEL-2 melanoma was above 100 µM throughout. The TGI in the experiment with SN12C renal is above 100 µM; with SNB-19 CNS, above 100 µM; in the experiment with SNB-75 CNS, above 100 µM; in the experiment with U251 CNS, above 100 µM; with UACC-62 melanoma, 97.1 µM.

As to `N#CCc1nc(-c2cc3ccccc3oc2=O)cs1`, the TGI with 786-0 renal, with CAKI-1 renal, in the experiment with DU-145 prostate, in the experiment with HCT-15 colon, in the experiment on HOP-92 NSCLC and in the experiment on IGROV1 ovarian was above 100 µM throughout. Besides, the TGI with K-562 leukemia is above 100 µM; with MOLT-4 leukemia, 63.1 µM; in the experiment on NCI/ADR-RES ovarian it was above 100 µM; in the experiment on PC-3 prostate, above 100 µM; in the experiment on RXF 393 renal, above 100 µM; in the experiment on SK-MEL-2 melanoma, 80.2 µM. Besides, the TGI is above 100 µM in the experiment with SN12C renal; above 100 µM in the experiment with SNB-19 CNS; 99.7 µM in the experiment on SNB-75 CNS; above 100 µM in the experiment on U251 CNS; 45.6 µM in the experiment on UACC-62 melanoma.

As to `Nc1nccc(NCC2(CO)CC(CCc3ccccc3)C2)n1` (configuration not stated), the TGI is 27.8 µM in the experiment on 786-0 renal; 29.3 µM in the experiment on A498 renal; 28.6 µM in the experiment with CAKI-1 renal; 30.6 µM in the experiment on DU-145 prostate; 36.1 µM in the experiment with HCT-15 colon; 33.3 µM in the experiment with IGROV1 ovarian. The TGI was found to be 45.5 µM in the experiment with K-562 leukemia; 41.7 µM with MOLT-4 leukemia; 75.7 µM in the experiment on NCI/ADR-RES ovarian; 31.9 µM in the experiment on PC-3 prostate; 36 µM in the experiment on RXF 393 renal; 32.8 µM with SK-MEL-2 melanoma. In addition, the TGI with SN12C renal was 60.2 µM; in the experiment with SNB-75 CNS, 40.5 µM; in the experiment on U251 CNS, 28.7 µM; with UACC-62 melanoma, 28.5 µM.

With `C=C1CC[C@@H]2[C@](C)(COC(=O)CCC(=O)OC)CCC[C@@]2(C)[C@@H]1CCC1=CC(=O)OC1`, the TGI in the experiment with 786-0 renal is above 100 µM; with A498 renal, above 100 µM; in the experiment on CAKI-1 renal, 81.3 µM; in the experiment on DU-145 prostate, above 100 µM; in the experiment with HCT-15 colon, above 100 µM; in the experiment with IGROV1 ovarian, above 100 µM. Besides, the TGI was above 100 µM in the experiment on K-562 leukemia; 47.7 µM with MOLT-4 leukemia; above 100 µM with NCI/ADR-RES ovarian; above 100 µM in the experiment on PC-3 prostate; above 100 µM with SK-MEL-2 melanoma; above 100 µM with SN12C renal. Also, the TGI in the experiment on SNB-19 CNS and in the experiment on U251 CNS was above 100 µM each time.

Take `N#CCC(=O)N/N=C\C(O)C(O)C(O)C(O)CO` (configuration not stated): the TGI in the experiment on 786-0 renal, in the experiment with A498 renal, with CAKI-1 renal, with DU-145 prostate, in the experiment with HCT-15 colon and in the experiment with IGROV1 ovarian was above 100 µM in each case. The TGI with K-562 leukemia, in the experiment with MOLT-4 leukemia, in the experiment with NCI/ADR-RES ovarian, with PC-3 prostate, in the experiment with RXF 393 renal and in the experiment on SK-MEL-2 melanoma was above 100 µM each time. For the same compound, the TGI in the experiment on SN12C renal, with SNB-19 CNS, in the experiment with SNB-75 CNS and in the experiment on UACC-62 melanoma was above 100 µM throughout.

As to `COC(=O)c1c(C)cccc1C1CN=NC12Cc1cc(C)c(C)cc1C2=O` (configuration not stated), the TGI in the experiment on 786-0 renal, in the experiment on CAKI-1 renal, in the experiment with DU-145 prostate, in the experiment on HCT-15 colon, in the experiment on HOP-92 NSCLC and in the experiment with IGROV1 ovarian was above 100 µM in each case. For the same compound, the TGI with K-562 leukemia, in the experiment with MOLT-4 leukemia, with NCI/ADR-RES ovarian, with PC-3 prostate, with RXF 393 renal and with SK-MEL-2 melanoma was above 100 µM throughout. Further, the TGI with SN12C renal, in the experiment with SNB-19 CNS, in the experiment with SNB-75 CNS, with U251 CNS and in the experiment with UACC-62 melanoma was above 100 µM each time.

For the compound `CC(=O)n1c2ccc(Br)cc2c2nc3ccccc3nc21`, the TGI in the experiment on 786-0 renal, with CAKI-1 renal, in the experiment with DU-145 prostate, in the experiment with HCT-15 colon, in the experiment on HOP-92 NSCLC and with IGROV1 ovarian was above 100 µM each time. Moreover, the TGI with K-562 leukemia, in the experiment with MOLT-4 leukemia, with NCI/ADR-RES ovarian, with PC-3 prostate, in the experiment on RXF 393 renal and in the experiment with SK-MEL-2 melanoma was above 100 µM in each case. For the same compound, the TGI in the experiment on SN12C renal, in the experiment on SNB-19 CNS, with SNB-75 CNS, in the experiment on U251 CNS and with UACC-62 melanoma was above 100 µM in each case.
